In the assay the test system is Influenza A/Duck/MN/1525/81 (H5N1) virus. Further details: species or system BALB/c mice. Conditions: mouse, in vivo.

Each structure is given as a SMILES string. “And” between values parts separate entries of the source, which are not always exact repeats. Equal entries are not always repeated. Where two headings read alike, the source gives them in different places.

Take `CC#CCC(C)[C@H](O)/C=C/[C@@H]1[C@H]2c3cccc(CCCC(=O)[O-])c3O[C@H]2C[C@H]1O.[Na+]` (mixture of isomers) [beraprost, (+)-[1R,2R,3aS,8bS]-2,3,3a,8b-tetrahydro-2-hydroxyl-1-[(E)-(3S,4RS)-3-hydroxyl-4-methyl-1-octen-6-ynyl)-1H-cyclopenta[b]benzofuran-5-butanoic acid, sodium salt]: the “mice survived to day 21” value is reported as 6 of 10 and the survival rate came to 50%. Further, for the setting “sodium salt”, the “mean day of death (MDD)” value was 9.0 ± 3.9 days and 8.0 ± 2.0 days.
Regarding `CCOC(=O)C1=C[C@@H](OC(CC)CC)[C@H](NC(C)=O)[C@@H](N)C1` [oseltamivir], the “mean day of death (MDD)” value was 9.0 ± 0.0 days and 11.4 ± 1.8 days; the “mice survived to day 21” value is 8 out of 10; the survival rate is reported as 70%.

Source of the values: patent publication US20150196578A1, “COMBINATION THERAPY TREATMENT FOR VIRAL INFECTIONS” (priority 2009, published 2015).
